This note sets out measurements from a melting point compilation (Tetko et al.; mined from patent text by program, amines drawn as free bases though some values may be those of a salt).

Each structure is given as a SMILES string. Residues, ends and D or L forms follow the SMILES beside them. *: point of attachment. Tos = Cc1ccc(S(=O)(=O)*)cc1 Some results are limits rather than exact numbers.

In general, melting point refers to the temperature, or range, at which the solid turns liquid. As for `N#CC(Cl)=C(Cl)S(=O)(=O)c1ccccc1`, the melting point amounted to 72 °C.
Next, `CS(=O)(=O)c1ccc(-n2nc(CNC(=O)Nc3ccc(C(F)(F)F)cc3)cc2-c2ccccc2)cc1`: 129 to 132 °C.
On to `Cc1ccc(-c2ccc3c(c2)C=C(C(=O)N2CCC(N)CC2)CCO3)cc1`, for which the melting point lay within 123 to 127 °C.
For `Oc1nc2ccnn2c2ncccc12`, the melting point is greater than 300 °C.
The same measure for `COc1ccc2c(=O)c3ccc(O)c(OC)c3oc2c1`: 120 to 121 °C; for `CN1CCN(CCCN2c3ccc(F)cc3Sc3ccc(S(=O)(=O)N(C)C)cc32)CC1`: 166 to 169 °C; for `Cc1ccc(S(=O)(=O)CNCC(CS(=O)(=O)c2ccccc2Oc2ccc(OC(F)(F)F)cc2)N(O)C=O)cc1` (centres undefined): 161 to 162 °C.
Next, `CCCC(=O)NCc1cccc2c1CN(C1CCC(=O)NC1=O)C2=O` (centres undefined): 244 to 246 °C; `CCCCc1ccc(C(=O)N[C@H](Cc2ccc(C(F)(F)F)cc2)[C@@H](O)c2ccc(F)cc2)cc1` (racemic): 171 to 172 °C; `Cc1ccc2c(c1)CC(=O)c1cc(CC(=O)O)ccc1O2`: 154 to 155 °C.
`Cc1nc[nH]c1CSCCC1=NCCS(=O)(=O)N1` showed a melting point of 146 to 147 °C.
On to `COC(=O)CCNCc1ccc(-c2cc3ncnc(Nc4ccc5[nH]ccc5c4)c3s2)cc1`, for which the melting point lay in the range of 105 to 118 °C.
The compound `COc1ccc2c(C3=CCNCC3)c[nH]c2c1` returned a melting point of 193 to 194 °C.
In turn, `Cc1ncsc1CNc1ccc(-n2nc(C(F)(F)F)cc2C2CC2)cc1` yielded a melting point of 59.2 to 61.2 °C.
Turning to `O=C1c2ccccc2-c2cc(Nc3nc(Nc4ccc5c(c4)-c4ccccc4C5=O)nc(-c4cccn4Cc4ccccc4)n3)ccc21`, the melting point lay within 140 to 142 °C.
As for `CC(C)(C)c1cc(-c2nnc(NC(N)=O)s2)cc(C(C)(C)C)c1O`, the melting point is greater than 270 °C.
The compound `CCC1c2c(C#N)ncn2-c2cnc(Nc3ccc(C(=O)NC4CCN(C5CCN(CC(C)C)CC5)CC4)cc3OC)nc2N1C(C)C` (centres undefined) gave a melting point of 165 to 170 °C.
Next, `CC(=O)Nc1ccc([N+]([O-])=NC#N)cc1`: 240 to 242 °C; `O=C(Cn1cc(Cl)cn1)c1ccc(Br)s1`: 127 °C.
In the case of `COC(=O)C(C)Oc1ccc(NC(=O)COCc2ccccc2)cc1` (centres undefined), the melting point fell in the range of 67 to 70 °C.
`COC(=O)Cc1ccc(OCc2ccc3ccccc3n2)c(Cl)c1` showed a melting point of 79 °C.
The same measure for `CCc1cc2[nH]c(=O)oc2cc1NCC1CCCOC1` (centres undefined): 148 °C.
`CCOC(=O)C(=NOC)C1=CSCCO1` registered a melting point of 64 to 66 °C.
Next, `c1ccc2c(c1)[nH]c1cccc(OCC3CO3)c12` (centres undefined): 133 °C; `CNC(=O)c1ccc(Nc2nc(Nc3cc4c(cc3OC)CCN(Cc3ncco3)CC4)ncc2Cl)c(OC)c1`: 85 to 96 °C; `Cc1cn(-c2cc(NC(=O)c3ccc(C)c(C#Cc4ccc(NC5CC5)nn4)c3)cc(C(F)(F)F)c2)cn1`: 226 to 228 °C.
Next, `CC(C)c1nn(-c2ccc(C(F)(F)F)cc2)cc1CCCOc1ccccc1CC(=O)O`: 89 to 90 °C; `CCOC(=O)COc1ccc(C(=O)Nc2cccc(F)c2Sc2ccccc2-c2nnn[nH]2)cc1`: 208 to 209 °C.
The same measure for `CC(=O)Nc1ccc(-c2nn(C(C)=O)c3c2Cc2ccccc2-3)cc1`: 245 to 246 °C; for `Cc1ccc(S(=O)(=O)OCC(NC(=O)OC(C)(C)C)C(C)C)cc1` (centres undefined): 85 °C; for `Cc1cc(Cl)nc2ccc(Cn3ccnc3)cc12`: 121 °C.
`Nc1nc(N)c2cc(Oc3ccc(Cl)cc3)ccc2n1` came in with a melting point of 226 to 228 °C.
Next, `COc1cc2nc(N)nc(-c3cccc(O)c3)c2cc1OC`: 256 to 258 °C; `O=C(Nc1n[nH]c(=S)s1)NC(Cc1ccccc1)C(=O)NCc1cccnc1` (centres undefined): 99 to 101 °C.
The same measure for `Cc1cc(-c2ccc(C(F)(F)F)cc2)cn2c(-c3nc(-c4ccc(S(N)(=O)=O)cc4)no3)cnc12`: 290 °C; for `CON(C)C(=O)C(C)NC(=O)OC(C)(C)C` (centres undefined): 150 to 151 °C; for `Cc1ccc(S(=O)(=O)N2CC=CC2)cc1`: 123 to 124 °C.
The same measure for `Cc1c(C2(N(C)C)CCC(c3cccc(F)c3)(N(C)C)CC2)[nH]c2ccccc12` (centres undefined): 126 to 132 °C; for `CCCc1nn(C)c2c(=O)n(CCOc3ccc(SC(C)(C)C(=O)O)cc3)c(CC)nc12`: 104 to 106 °C.
`CC(C)(C)OC(=O)[C@@H]1CNC(=O)N1C(=O)OCc1ccccc1`: the melting point was in the range of 138 to 139 °C.
With `O=C1N=CC(OCC2CC2)(C(F)(F)F)c2cc(F)ccc2N1` (centres undefined), the melting point fell in the range of 198 to 199 °C.
As to `CCOC(=O)CC(=O)C(C)(C)Sc1ccccc1`, the melting point lay in the range of 44 to 45 °C.
On to `Cc1ccc(CSc2nc3cscc3n2C(=O)OCc2ccccc2)nc1`, for which the melting point was 103 to 104 °C.
Next, `Cc1ccc(S(=O)(=O)N2CCC[C@H]2C(=O)N[C@@H](C)C(=O)O)cc1` (Tos-Pro-Ala-OH): 160 to 162 °C; `CC1(N2Cc3ccccc3C2=O)CCC(=O)NC1=O` (centres undefined): 231 to 232 °C; `C[C@]12CCC(=O)N[C@@H]1CCc1cc(-c3ccc([N+](=O)[O-])cn3)ccc12`: 123 to 124 °C.
The same measure for `O=C(c1ccccc1)N1CCc2cc(Cl)ccc21`: 135 to 136 °C; for `CSc1c(C#N)c(=O)n(C)c(=O)n1C`: 118 to 120 °C; for `C#CCOCc1c(C)nc2c(OCc3ccccc3C)cccn12`: 87 to 89 °C.
The compound `[N-]=[N+]=NCC(O)c1cc(S(N)(=O)=O)ccc1F` (centres undefined) yielded a melting point of 86 °C.
The same measure for `CC(C(=O)OC1(C)CCCCC1)c1ccc(N)cc1` (centres undefined): 85 to 87 °C; for `CCCCCCCCCCN(O)C(=O)NCCCC(=O)OC`: 89 to 90 °C.
The same measure for `Nc1cc(OCC2=CCCSC2)c(Cl)cc1F`: 73 to 74 °C; for `O=C1NC(=O)C2(N1)C(=O)N(Cc1ccc(Cl)c(Cl)c1)c1ccccc12` (centres undefined): 269 to 271 °C.
The same measure for `CCOC(=O)c1c(O)c2cc(F)ccc2c(=O)n1CC(C)(C)C`: 115 to 116 °C.
`Cc1c[nH]c(-c2cnn(-c3c(Cl)cc(C(F)(F)F)cc3Cl)n2)n1` displayed a melting point of 217 to 218 °C.
The same measure for `FS(F)(F)(F)(F)c1ccc(/C=C/c2nc(COc3ccc(-c4nc(Cn5ccnn5)co4)cc3)co2)cc1`: 172 to 174 °C.
In the case of `Cc1cccc2c(=O)[nH]c(N3CCN(C)CC3)cc12`, the melting point was in the range of 186 to 188 °C.
In turn, `CN1C(=O)Cn2c(nn(-c3ccccc3)c2=O)-c2cc(Cl)ccc21` returned a melting point of 174 to 175 °C.
The same measure for `Cc1cc(C(F)(F)F)nn1CC(=O)N1CCC(C(N)=S)CC1`: 185 to 186 °C.
On to `COc1cc2c(cc1Br)CC=C2CCNC(C)=O`, for which the melting point lay within 146 to 148 °C.
Next, `CC(C)(C)OC(=O)Nc1cnc(F)cc1C(=O)CC#N`: 106 to 115 °C; `CC1(C)OC(=S)N(c2cc(F)cc(C(F)(F)F)c2)c2ccccc21`: 204 to 206 °C; `Cc1ccc(-c2cn(C)cc(-c3ccccc3C)c2=O)cc1`: 151 to 154 °C.
On to `COCCNC(=O)c1cccc(-c2cccc3cc(Cc4cccc(N(C)C)c4)sc23)c1`, for which the melting point lay within 92 to 93 °C.
`CCc1nccn1-c1nc(-c2ccc(Cl)cc2)c(CCCOc2ccccc2OC)o1` returned a melting point of 78 to 79 °C.
The same measure for `Cc1ncoc1C(C)(O)c1ccccc1C(F)(F)F` (centres undefined): 108 to 109 °C; for `COc1cccc2c1CCN(C(=O)C(F)(F)F)CC2`: 74 to 76 °C; for `CCCn1c(=O)nc(SC)c2c1ncn2COCc1ccccc1`: 167 to 168 °C.
The compound `O=C(O)Cc1ccccc1SCc1ccc(Cl)cc1` returned a melting point of 149 to 151 °C.
Next, `CC(C)(C)OC(=O)[C@H]1CC[C@@H](c2ccccc2)N1C(=O)CNC(=O)Nc1cccc(OCC(=O)O)c1` (racemic): 192 °C; `CCCCCCCCCCc1ccc2c(c1)C(=O)C(=COC(=O)c1ccccc1)CC2`: 64 to 66 °C; `Cc1c(C)c2c(c(C)c1NC(=O)CC(C)(C)C)C(C1CCCCC1)C(C)(C)O2` (centres undefined): 198 to 199 °C.
As to `Fc1cc(-c2ncon2)ccc1CBr`, the melting point turned out to be 87.3 °C.
For `Cc1cc(CCCCCOc2ccc(C3=NCCO3)cc2)on1`, the melting point lay in the range of 102 to 104 °C.
The same measure for `Cc1ccc2c(c1C#N)c(Sc1ccc(Cl)cc1)c(C)n2CC(=O)O`: 237 to 238 °C; for `CC=CC(=O)N(CCCCC(=O)O)C(c1ccccc1)c1ccccc1`: 88 to 89 °C.
The same measure for `CS(=O)(=O)Nc1ccc(C#N)cc1C(O)c1ccc(F)cc1F` (centres undefined): 133 to 135 °C; for `O=C(O)c1ccc(Cl)c(S)c1`: 209 to 211 °C.
As to `COc1ccccc1-c1cc2c(c(Br)cn2C)c2c1C(=O)NC2=O`, the melting point lay within 216 to 220 °C.
The compound `COC(=O)C(C)Oc1ccc(Oc2ncc(Cl)cc2F)cc1` (centres undefined) gave a melting point of 58 to 59 °C.
`CC(=O)OC1CSC(Oc2cccnc2-c2ccncc2)C(OC(C)=O)C1OC(C)=O` (centres undefined) yielded a melting point of 161 °C.
Compound `CCCCCc1c(C(=O)NN2CC=CCC2)nn(-c2ccc(Cl)cc2Cl)c1-c1ccc(Cl)cc1` showed a melting point of 150 °C.
The same measure for `Cc1cc(C)c2ncc([N+](=O)[O-])c(-c3ccccc3Cl)c2c1`: 130 to 131 °C.
Next, `Oc1ccc(C2Oc3ccccc3C=C2c2ccc(OC3CCCCO3)cc2)cc1` (centres undefined): 110 °C; `CC(=O)NN1CCN(CCc2c[nH]c3ccccc23)CC1`: 183 to 186 °C.
`C=C(C)C(=O)OCCCOc1ccc(OC(=O)C(=C)C)cc1`: the melting point worked out at 58 °C.
`CNC(=O)Cn1c(-c2ccc(Cl)cc2)nc2cccnc21`: the melting point is 238 °C.
Next, `CCCCOc1c(CNC(=O)OC(C)(C)C)n(CC(C)C)c(=O)c2ccc(C(=O)O)cc12`: 185 to 186 °C.
